# Test results taken from patent publication US20240417405A1, “Substituted Spiro Derivatives” (Janssen Pharmaceutica NV, priority 2021, published 2024).
# Where two headings read alike, the source gives them in different places.
# Assays:
# [1] = target: T1, menin/MLL (terbium chelate-labeled menin, FITC-MBM1 peptide) (Homo sapiens, UniProt O00255, T541A); assay: Menin/MLL homogenous time-resolved fluorescence (HTRF) assay; assay type: binding; conditions: 30 min incubation
# T1 construct: Menin (a.a 1-610-6xhis tag)
# T1 sequence (O00255 with tags, fused parts or gaps T541A): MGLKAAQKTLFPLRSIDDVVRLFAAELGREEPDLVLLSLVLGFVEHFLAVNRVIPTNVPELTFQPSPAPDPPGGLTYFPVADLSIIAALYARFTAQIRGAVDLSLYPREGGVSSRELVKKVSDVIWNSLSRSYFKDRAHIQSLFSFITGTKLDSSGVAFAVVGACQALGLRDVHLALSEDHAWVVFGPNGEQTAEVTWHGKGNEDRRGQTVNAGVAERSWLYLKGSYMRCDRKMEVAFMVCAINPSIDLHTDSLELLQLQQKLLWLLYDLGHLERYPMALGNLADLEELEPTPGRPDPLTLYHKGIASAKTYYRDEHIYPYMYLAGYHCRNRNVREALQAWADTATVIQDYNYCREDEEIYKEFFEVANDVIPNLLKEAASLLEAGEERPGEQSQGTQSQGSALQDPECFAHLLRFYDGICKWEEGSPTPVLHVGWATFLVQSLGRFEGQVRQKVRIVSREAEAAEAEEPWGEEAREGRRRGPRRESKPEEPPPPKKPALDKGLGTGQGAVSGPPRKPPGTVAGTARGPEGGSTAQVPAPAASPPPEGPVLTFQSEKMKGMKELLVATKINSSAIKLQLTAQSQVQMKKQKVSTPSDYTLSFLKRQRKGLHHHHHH
# How it was run: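 Terbium-labeled menin (aa 1-610, His-tagged; 200 pM) preincubated 30 min with compound, then 75 nM FITC-MBM1 peptide added for 15 min at ambient temperature in pH 7.5 Tris buffer, 0.5% DMSO. HTRF ratio 520/490 nm converted to % inhibition. IC50 came from an 11-point four-fold titration from 10 μM, floor 0.1 nM.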
# MOLM14 cells = assay: Proliferation assay, spheroid-like growth, MOLM14 (MLL-AF9 rearranged); assay type: cell-based, human; conditions: 8 days, confluence as measure of spheroid size, read-out: spheroid assay_OneTime MOLM14 IC50
# How it was run: (§1)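 Cells seeded in ultra-low attachment round-bottom wells (200 MOLM14 or 300 KO-52 per well) with compound at several concentrations, DMSO 0.3%, grown 8 days at 37° C, 5% CO2. Spheroid size taken as confluence from day-8 live-cell images; IC50 from variable-slope fit, DMSO as 0% and high-dose reference compound as 100% effect.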
# KO-52 cells = assay: Proliferation assay, spheroid-like growth, KO-52 (MLL wildtype control cell line); assay type: cell-based, human; conditions: Homo sapiens, 192 h, KO-52 control cells, 8 days, confluence as measure of spheroid size; read-out: spheroid assay_OneTime KO-52 IC50
# How it was run: as §1
IC50 [1],"IC50 (MOLM14 cells; Homo sapiens, MOLM-14, 192 h)",IC50 (MOLM14 cells),SMILES,IC50 (KO-52 cells)
0.5 nM,160 nM,,CC(C)C([C@H]1C[C@@H](N2CCC(F)(F)CC2)C1)N1CC2(CCN(c3ncnnc3Oc3ccc(F)cc3-c3cncnc3C3CC3)C2)C1 (stereo partly drawn) [Compound 127],4660 nM
1.3 nM,450 nM,,CC(C)C([C@H]1C[C@H](N2CCC(F)(F)CC2)C1)N1CC2(CCN(c3ncnnc3Oc3ccc(F)cc3-c3cncnc3C3CC3)C2)C1 (stereo partly drawn) [Compound 128],7890 nM
0.2 nM,11 nM,,CC(C)C([C@H]1C[C@@H](N2CCC(C)(O)CC2)C1)N1CC2(CCN(c3ncnnc3Oc3ccc(F)cc3-c3cncnc3C3CC3)C2)C1 (stereo partly drawn) [Compound 129],3390 nM
0.2 nM,50 nM,,CC(C)C([C@H]1C[C@@H](N2CCC(C(=O)N(C)C)CC2)C1)N1CC2(CCN(c3ncnnc3Oc3ccc(F)cc3-c3cncnc3C3CC3)C2)C1 (stereo partly drawn) [Compound 131],6200 nM
0.3 nM,76 nM,,CC(C)C([C@H]1C[C@@H](N2CCC(S(C)(=O)=O)CC2)C1)N1CC2(CCN(c3ncnnc3Oc3ccc(F)cc3-c3cncnc3C3CC3)C2)C1 (stereo partly drawn) [Compound 132],8100 nM
0.1 nM,21 nM,,CC(C)C([C@H]1C[C@@H](NCC(C)(C)O)C1)N1CC2(CCN(c3ncnnc3Oc3ccc(F)cc3-c3cncnc3C3CC3)C2)C1 (stereo partly drawn) [Compound 133],7380 nM
0.3 nM,8 nM,,CC(C)C([C@H]1C[C@@H](N2CCCCC2)C1)N1CC2(CCN(c3ncnnc3Oc3ccc(F)cc3-c3cncnc3C3CC3)C2)C1 (stereo partly drawn) [Compound 135],1000 nM
0.1 nM,8 nM,,CC(C)C([C@H]1C[C@@H](N(C)C)C1)N1CC2(CCN(c3ncnnc3Oc3ccc(F)cc3-c3cncnc3C3CC3)C2)C1 (stereo partly drawn) [Compound 136],7070 nM
0.1 nM,2 nM,,CC(C)C([C@H]1C[C@@H](N2C[C@H]3COC[C@H]3C2)C1)N1CC2(CCN(c3ncnnc3Oc3ccc(F)cc3-c3cnccc3C3CC3)C2)C1 (stereo partly drawn) [Compound 138],460 nM
0.1 nM,41 nM,,CC(C)C([C@H]1C[C@H](N2C[C@H]3COC[C@H]3C2)C1)N1CC2(CCN(c3ncnnc3Oc3ccc(F)cc3-c3cnccc3C3CC3)C2)C1 (stereo partly drawn) [Compound 139],1310 nM
0.1 nM,7 nM,,CC(C)C([C@H]1C[C@@H](N2C[C@H]3COC[C@H]3C2)C1)N1CC2(CCN(c3ncnnc3Oc3ccc(F)cc3-c3cncc(C#N)c3C3CC3)C2)C1 (stereo partly drawn) [Compound 142],1350 nM
0.1 nM,27 nM,,CC(C)C([C@H]1C[C@H](N2C[C@H]3COC[C@H]3C2)C1)N1CC2(CCN(c3ncnnc3Oc3ccc(F)cc3-c3cncc(C#N)c3C3CC3)C2)C1 (stereo partly drawn) [Compound 143],1530 nM
0.8 nM,200 nM,,CC(=O)N1CCN([C@H]2C[C@@H](C(C(C)C)N3CC4(CCN(c5ncnnc5Oc5ccc(F)cc5-c5cncc(C#N)c5C5CC5)C4)C3)C2)CC1 (stereo partly drawn) [Compound 144],12300 nM
0.8 nM,100 nM,,CC(C)C(C1CC2(CCN2CC2COC2)C1)N1CC2(CCN(c3ncnnc3Oc3ccc(F)cc3-c3cncnc3C3CC3)C2)C1 (stereo not drawn) [Compound 156],7960 nM
0.1 nM,4 nM,,CC(C)[C@H]([C@H]1C[C@@H](N2CCC(C)(C(=O)N(C)C)C2)C1)N1CC2(CCN(c3ncnnc3Oc3ccc(F)cc3-c3cncnc3C3CC3)C2)C1 (stereo partly drawn) [Compound 161],3360 nM
0.1 nM,110 nM,,CC(C)[C@H]([C@H]1C[C@H](N2CCC(C)(C(=O)N(C)C)C2)C1)N1CC2(CCN(c3ncnnc3Oc3ccc(F)cc3-c3cncnc3C3CC3)C2)C1 (stereo partly drawn) [Compound 162],6400 nM
0.1 nM,< 2 nM,,CC(C)[C@H]([C@H]1C[C@@H](N2C[C@H]3COC[C@H]3C2)C1)N1CC2(CCN(c3ncnnc3Oc3ccc(F)cc3-c3cnc(C#N)nc3C3CC3)C2)C1 [Compound 167],4110 nM

IC50 [1],"IC50 (MOLM14 cells; Homo sapiens, MOLM-14, 192 h)",IC50 (MOLM14 cells),SMILES,IC50 (KO-52 cells)
0.6 nM,53 nM,,CC(C)[C@@H]([C@H]1C[C@@H](N2C[C@H]3COC[C@H]3C2)C1)N1CC2(CCN(c3ncnnc3Oc3ccc(F)cc3-c3cnc(C#N)nc3C3CC3)C2)C1 [Compound 168],2590 nM
0.5 nM,80 nM,,CC(=O)N[C@H]1C[C@@H](C(C(C)C)N2CC3(CCN(c4ncnnc4Oc4ccc(F)cc4-c4nccnc4C4CC4)C3)C2)C1 (stereo partly drawn) [Compound 176],10400 nM
0.4 nM,73 nM,,CC(=O)N[C@H]1C[C@@H](C(C(C)C)N2CC3(CCN(c4ncnnc4Oc4ccc(F)cc4-c4ncncc4C4CC4)C3)C2)C1 (stereo partly drawn) [Compound 179],12600 nM
0.2 nM,10 nM,,CC(C)C([C@H]1C[C@@H](NC(=O)C2CC2)C1)N1CC2(CCN(c3ncnnc3Oc3ccc(F)cc3-c3cnncc3C3CC3)C2)C1 (stereo partly drawn) [Compound 184],600 nM
0.8 nM,65 nM,,CC(=O)N[C@H]1C[C@@H](C(C(C)C)N2CC3(CCN(c4ncnnc4Oc4ccc(F)cc4-c4cnncc4C4CC4)C3)C2)C1 (stereo partly drawn) [Compound 187],> 15000 nM
0.2 nM,520 nM,,CC(=O)N[C@H]1C[C@@H](C(C(C)C)N2CC3(CCN(c4ncnnc4Oc4ccc(F)cc4-c4cccc(=O)n4C4CC4)C3)C2)C1 (stereo partly drawn) [Compound 188],> 15000 nM
0.4 nM,140 nM,,CC(C)C([C@H]1C[C@@H](NC(=O)C2CC2)C1)N1CC2(CCN(c3ncnnc3Oc3ccc(F)cc3-c3cccc(=O)n3C3CC3)C2)C1 (stereo partly drawn) [Compound 189],> 15000 nM
0.2 nM,50 nM,,CC(C)C([C@H]1C[C@@H](Nc2cncnc2)C1)N1CC2(CCN(c3ncnnc3Oc3ccc(F)cc3-c3cncnc3C3CC3)C2)C1 (stereo partly drawn) [Compound 193],> 15000 nM
0.9 nM,450 nM,,CC(C)C([C@H]1C[C@@H](Nc2ccn(C)n2)C1)N1CC2(CCN(c3ncnnc3Oc3ccc(F)cc3-c3cncnc3C3CC3)C2)C1 (stereo partly drawn) [Compound 194],> 15000 nM
1.3 nM,510 nM,,CC(C)C(C1CC(O)(c2cnn(C)c2)C1)N1CC2(CCN(c3ncnnc3Oc3ccc(F)cc3-c3cncnc3C3CC3)C2)C1 (stereo not drawn) [Compound 195],> 15000 nM
13.6 nM,> 940 nM,,CC(=O)N[C@H]1C[C@@H](C(C(C)C)N2CC3(CCN(c4ncnnc4Oc4ccc(F)cc4-c4c[nH]c(=O)nc4C4CC4)C3)C2)C1 (stereo partly drawn) [Compound 196],> 15000 nM
0.3 nM,250 nM,,CC(C)C(C1CC2(CCN2)C1)N1CC2(CCN(c3ncnnc3Oc3ccc(F)cc3-c3cncnc3C3CC3)C2)C1 (stereo not drawn) [Compound 198],> 15000 nM
0.8 nM,300 nM,,CC(C)C(C1CCN(CC2COC2)CC1)N1CC2(CCN(c3ncnnc3Oc3ccc(F)cc3-c3ncncc3C3CC3)C2)C1 (stereo not drawn) [Compound 203],1860 nM
0.1 nM,21 nM,,CC(C)C([C@H]1C[C@@H](NC(=O)CCN(C)C)C1)N1CC2(CCN(c3ncnnc3Oc3ccc(F)cc3-c3cncnc3C3CC3)C2)C1 (stereo partly drawn) [Compound 302],14100 nM
0.2 nM,32 nM,,CC(C)C([C@H]1C[C@@H](N2CCC3(COC3)C2)C1)N1CC2(CCN(c3ncnnc3Oc3ccc(F)cc3-c3cncnc3C3CC3)C2)C1 (stereo partly drawn) [Compound 326],9180 nM
0.2 nM,5 nM,,CC(C)C([C@H]1C[C@@H](N2CCC3(CCO3)CC2)C1)N1CC2(CCN(c3ncnnc3Oc3ccc(F)cc3-c3cncnc3C3CC3)C2)C1 (stereo partly drawn) [Compound 327],> 15000 nM
0.137 nM,,2.7 nM,CC(=O)N1CC2CN([C@H]3C[C@@H]([C@H](C(C)C)N4CC5(CCN(c6ncnnc6Oc6ccc(F)cc6-c6cnc(C)nc6C6CC6)C5)C4)C3)CC2C1 (stereo partly drawn) [Compound 377],4840 nM
